The values below come from patent US20250127799A1, “DRUG CONJUGATES FOR BONE MARROW PROTECTION” (priority 2023, published 2025).

One series concerns CD2F1 male mice. The series can be described thus: In vivo radioprotective effects: 30-day survival after Cobalt-60 gamma irradiation. The note with it: 24 h before 9.2 Gy. The protocol:
(§1) CD2F1 male mice (N=16) were subcutaneously (sc) injected with a single dose of two different conjugates. For one protective drug conjugate (Conjugate 1), the tested doses were 200, 400, and 800 mg/kg. The structure of Conjugate 1 included amifostine as the protective drug, alendronate as the bone-targeting ligand, and a protease-cleavable peptide having the sequence of CKPLGLWAL (SEQ ID NO: 33) with acetylation at the N-terminus (e.g., AcCKPLGLWAL; SEQ ID NO: 74). […] The irradiated mice were monitored for survival for 30 days post-irradiation. […] For the vehicle control group, the mortalities of mice occurred during 8 to 17 days post-irradiation, and the final survival rate was 6.25% (1 out of 16 survived), indicating significant mortality by gamma-irradiation.
For another protective drug conjugate (Conjugate 2), the tested doses were 250, 500, 600, and 700 mg/kg, and the irradiation was conducted at 24 h post-drug administration. The structure of Conjugate 2 included amifostine as the protective drug, alendronate as the bone-targeting ligand, and a protease-cleavable peptide having the sequence of CPLGLYAL (SEQ ID NO: 29) with acetylation at the N-terminus (e.g., AcCPLGLYAL; SEQ ID NO: 76).
as §1, with “a” for “two different conjugates. For one”, “1), and” for “1),”, “250, 300,” for “200, 400,”, “350” for “800”, “0% (0” for “6.25% (1”
as §1, with “CD2F1 male mice (N=16) were subcutaneously (sc) injected CD2F1” for “CD2F1”, “a” for “two different conjugates. For one”, “1), and” for “1),”, “250, 300,” for “200, 400,”, “350” for “800”
CD2F1 male mice (N=16) were subcutaneously (sc) injected CD2F1 male mice (N=16) were subcutaneously (sc) injected with a single dose of a protective drug conjugate (Conjugate 1), and the tested doses were 50, 100, and 200 mg/kg. The structure of Conjugate 1 included amifostine as the protective drug, alendronate as the bone-targeting ligand, and a protease-cleavable peptide having the sequence of CKPLGLWAL (SEQ ID NO: 33) with acetylation at the N-terminus (e.g., AcCKPLGLWAL; SEQ ID NO: 74). […] The irradiated mice were monitored for survival for […] post-irradiation. […] For the vehicle control group, the mortalities of mice occurred during 8 to 17 days post-irradiation, and the final survival rate was 0% (0 out of 16 survived), indicating significant mortality by gamma-irradiation.
CD2F1 male mice (N=16) were subcutaneously (sc) injected CD2F1 male mice (N=16) were subcutaneously (sc) injected with a single dose of a protective drug conjugate, i.e., Conjugate 3. The tested doses were 250, 300, and 350 mg/kg. […]

The nature of series [1]: Conjugate cleavage in fresh bone marrow aspirate (HPLC). It is filed as in vitro ADME. The following applies: fresh bone marrow aspirate; human bone marrow aspirate, same donor, 37° C., up to 6 h; read-out: time to reach 50% conjugate cleavage (converted). The protocol:
The proteolytic cleavage of conjugates determines the therapeutic window, which is controlled by the specific peptide sequence. In a representative cleavage experiment, a […] stock solution of a conjugate (30 mg/mL) was mixed with 90 μL of fresh bone marrow aspirate, followed by incubation at 37° C. for up to 6 h. A 10 μL sample was taken every hour, diluted in 90 μL acetonitrile to precipitate proteins and extract conjugates and cleavage products. The concentrations of the conjugates in samples were determined by HPLC, normalized, and presented as the cleavage ratio.

Peptide text beside a SMILES is read from it. * marks the point of attachment. X1 = O=C(CCCCCN1C(=O)CC(*)C1=O)NCCCC(O)(P(=O)(O)O)P(=O)(O)O; X2 = O=P(O)(O)SCCNCCCN*

Regarding `CC(=O)N[C@@H](CSC1CC(=O)N(CCCCCC(=O)NCCCC(O)(P(=O)(O)O)P(=O)(O)O)C1=O)C(=O)N1CCC[C@H]1C(=O)N[C@@H](CC(C)C)C(=O)NCC(=O)N[C@@H](CC(C)C)C(=O)N[C@@H](Cc1ccc(O)cc1)C(=O)N[C@@H](C)C(=O)N[C@@H](CC(C)C)C(=O)NCCCNCCSP(=O)(O)O` (some centres unmarked) [Conjugate 2] (Ac-C(X1)PLGLYAL-X2), the 30-day survival rate in the series on CD2F1 male mice (250 mg/kg sc) came to 68.75%; in the series with CD2F1 male mice (500 mg/kg sc), 75%; in the series with CD2F1 male mice (600 mg/kg sc), 93.75%; in the series with CD2F1 male mice (700 mg/kg sc), 100%. For the same molecule, the half-life at 3 mg/mL in series [1] is 4.2 h.
